The values below come from article PMC4844176 (Xenobiotica; the fate of foreign compounds in biological …, 2015).

Structures are written as SMILES. Where “and” joins values, the source holds several entries; their conditions need not be identical. Equal values may be shown once.

For data set [1], the target named is T1, UGT2B7 (Homo sapiens, UniProt P16662).
T1 sequence (P16662 24-529): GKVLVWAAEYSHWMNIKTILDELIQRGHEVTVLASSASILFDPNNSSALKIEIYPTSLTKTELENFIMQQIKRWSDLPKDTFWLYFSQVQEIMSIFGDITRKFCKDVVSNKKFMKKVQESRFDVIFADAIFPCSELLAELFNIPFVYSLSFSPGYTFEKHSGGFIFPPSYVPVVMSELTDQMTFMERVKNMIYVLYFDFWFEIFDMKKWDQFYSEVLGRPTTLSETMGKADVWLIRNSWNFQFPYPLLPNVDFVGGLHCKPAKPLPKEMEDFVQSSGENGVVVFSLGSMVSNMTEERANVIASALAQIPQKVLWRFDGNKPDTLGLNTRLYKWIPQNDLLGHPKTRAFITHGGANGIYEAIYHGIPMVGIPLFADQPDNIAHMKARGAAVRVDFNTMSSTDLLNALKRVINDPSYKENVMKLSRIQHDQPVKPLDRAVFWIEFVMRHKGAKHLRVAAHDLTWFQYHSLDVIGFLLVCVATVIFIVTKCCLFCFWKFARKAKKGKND
Kind of data set: biochemical.

The test system of data set [2] is human liver microsomes (HLM). Type of data set: in vitro ADME. The note with it: microsomes from 44 livers, 30 µM aprepitant.
For data set [3] the following is noted: ref Lasseter et al., 2007, Takahashi et al., 2011; cited from earlier work.
A further data set concerns the target T2, UGT1A4 (Homo sapiens, UniProt P22310).
T2 sequence (P22310 29-534): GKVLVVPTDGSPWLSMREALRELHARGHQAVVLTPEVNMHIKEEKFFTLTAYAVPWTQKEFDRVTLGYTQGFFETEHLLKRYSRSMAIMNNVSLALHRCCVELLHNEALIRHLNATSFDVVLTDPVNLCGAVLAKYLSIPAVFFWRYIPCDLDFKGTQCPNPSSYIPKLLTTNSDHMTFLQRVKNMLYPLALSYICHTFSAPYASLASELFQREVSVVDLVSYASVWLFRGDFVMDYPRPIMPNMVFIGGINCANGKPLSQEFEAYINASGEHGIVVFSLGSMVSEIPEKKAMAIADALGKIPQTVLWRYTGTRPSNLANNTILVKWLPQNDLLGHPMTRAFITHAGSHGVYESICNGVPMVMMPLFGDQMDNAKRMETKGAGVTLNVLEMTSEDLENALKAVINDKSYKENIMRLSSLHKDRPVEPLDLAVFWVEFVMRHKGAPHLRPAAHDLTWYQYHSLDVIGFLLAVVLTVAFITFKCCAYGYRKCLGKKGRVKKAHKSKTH
Kind of data set: Inhibition by aprepitant of UGT1A4. Type of data set: in vitro ADME. As to conditions: UGT1A4 enzyme, probe imipramine.

The target in another data set is T3, UGT1A7 (Homo sapiens, UniProt Q9HAW7).
T3 sequence (Q9HAW7 26-530): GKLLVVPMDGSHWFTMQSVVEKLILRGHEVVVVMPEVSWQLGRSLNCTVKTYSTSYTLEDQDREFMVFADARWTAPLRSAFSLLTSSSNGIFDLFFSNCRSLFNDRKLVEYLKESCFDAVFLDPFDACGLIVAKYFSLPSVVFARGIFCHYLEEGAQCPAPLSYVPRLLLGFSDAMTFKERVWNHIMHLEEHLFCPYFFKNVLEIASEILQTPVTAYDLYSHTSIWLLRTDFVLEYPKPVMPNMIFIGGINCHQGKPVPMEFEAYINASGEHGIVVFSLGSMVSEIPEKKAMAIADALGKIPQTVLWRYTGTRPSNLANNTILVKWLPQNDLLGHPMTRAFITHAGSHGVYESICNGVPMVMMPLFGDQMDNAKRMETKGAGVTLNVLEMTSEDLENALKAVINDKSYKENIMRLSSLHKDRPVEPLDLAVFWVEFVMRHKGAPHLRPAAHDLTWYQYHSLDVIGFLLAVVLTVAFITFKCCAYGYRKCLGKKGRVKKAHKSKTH
Kind of data set: Screening for aprepitant glucuronidation, UGT1A7 Supersomes. Type of data set: in vitro ADME. As to conditions: UGT1A7, 5 and 250 µM aprepitant.

Data set [4] addresses T1, UGT2B7. Kind of data set: Inhibition by aprepitant of UGT2B7. Type of data set: in vitro ADME. As to conditions: UGT2B7 enzyme, pH 7.5, probe 4-MU.
In data set [5] the test system is human liver microsomes (HLM). Type of data set: in vitro ADME. As to conditions: pooled HLM; Km not shown.
The target of the next data set is T4, UGT2B17 (Homo sapiens, UniProt O75795).
T4 sequence (O75795 24-530): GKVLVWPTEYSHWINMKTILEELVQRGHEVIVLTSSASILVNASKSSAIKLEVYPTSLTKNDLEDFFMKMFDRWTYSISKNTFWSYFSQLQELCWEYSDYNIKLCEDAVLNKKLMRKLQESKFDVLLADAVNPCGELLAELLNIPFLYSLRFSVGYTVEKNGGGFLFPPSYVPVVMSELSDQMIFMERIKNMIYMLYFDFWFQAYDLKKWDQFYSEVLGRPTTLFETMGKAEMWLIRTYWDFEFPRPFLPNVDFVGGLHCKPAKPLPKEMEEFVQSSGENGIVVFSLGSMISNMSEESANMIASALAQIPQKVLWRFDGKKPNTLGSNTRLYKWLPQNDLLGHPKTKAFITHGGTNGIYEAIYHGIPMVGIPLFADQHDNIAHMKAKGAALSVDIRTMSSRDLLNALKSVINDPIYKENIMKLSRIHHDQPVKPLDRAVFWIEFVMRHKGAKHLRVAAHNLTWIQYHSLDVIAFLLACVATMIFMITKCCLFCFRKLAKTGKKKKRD
Kind of data set: Inhibition by aprepitant of UGT2B17. The format is in vitro ADME. The note with it: UGT2B17 enzyme, pH 7.5, probe 4-MU.

One may read the Ki as the dissociation constant of the complex between target and ligand, obtained from inhibition or displacement. Low values mean a stronger hold on the target, high ones a looser hold on the target. For orientation: inhibition means how much of the control response was suppressed. On to `C[C@@H](O[C@H]1OCCN(Cc2n[nH]c(=O)[nH]2)[C@H]1c1ccc(F)cc1)c1cc(C(F)(F)F)cc(C(F)(F)F)c1` [aprepitant, Aprepitant], for which the Ki at UGT2B7 [1] was ~10 µM and 7.4 µM and 16.3 µM and 6.7 µM. Further, the “variation of glucuronidation activity between livers” value in data set [2] is “approximately 2 fold”. In data set [3], the “systemic circulation concentration in patients” value is given as “approximately 5 µM”. Further, the inhibition at 60 min, 10 µM against UGT1A4 came to 18%. Besides, the AP-G formation entry on UGT1A7 is “not detected”. Also, the inhibition at 1 µM at UGT2B7 [4] is around 17%. Besides, the figures for the inhibition at 10 µM against UGT2B7 [4] and against UGT2B17 were 70% and 10%, respectively. Moreover, the “shape of velocity curve (kinetics)” value in data set [5] was “biphasic shape”.
